Reference: patent US20230193348A1, “DPP3 FOR THERAPY GUIDANCE, MONITORING AND STRATIFICATION OF NT-ADM ANTIBODIES IN PATIENTS WITH SHOCK” (4TEEN4 PHARMACEUTICALS GMBH, priority 2020, published 2023)

Assays:
[1] = system: patients with septic shock and elevated adrenomedullin; assay: AdrenOSS-2 phase II clinical trial, 14-day mortality; assay type: in vivo, human; details: vs placebo
From the text: AdrenOSS-2 is a double-blind, placebo-controlled, randomized, multicenter, proof of concept and dose-finding phase II clinical trial to investigate the safety, tolerability and efficacy of the N-terminal ADM antibody named Adrecizumab in patients with septic shock and elevated adrenomedullin (Geven et al. BMJ Open 2019;9:e024475). In total, 301 patients with septic shock and bio-ADM concentration > 70 pg/mL were randomized (2:1:1) to treatment with a single intravenous infusion over approximately 1 hour with either placebo (n=152), adrecizumab 2 ng/kg (n=72) or adrecizumab 4 ng/kg (n=77). All-cause mortality within 28 (90) days after inclusion was 25.8% (34.8%). Mean age was 68.4 years and 61% were male. For the per protocol analysis, n=294 patients remained eligible, and 14-day all-cause mortality rate was 18.5%.
In patients treated with Adrecizumab (both doses combined, per protocol population), a trend to lower short term mortality (14 days post admission) was observed compared to placebo (Hazard ratio (HR) 0.701 [0.408-1.21], p=0.100) (FIG. 8).

[2] = phase I study; cited from earlier work

## Adrecizumab: humanized version of an N-terminal anti-ADM antibody; heavy chain SEQ ID NO: 32, light chain SEQ ID NO: 33
[1]; patients with DPP3 <40
  HR 14-day mortality: 0.385
[1]; patients with DPP3 <50 (ng/mL on admission)
  HR 14-day mortality: 0.426
[1]; patients with DPP3 <60
  HR 14-day mortality: 0.449
[1]; patients with DPP3 <70
  HR 14-day mortality: 0.546
[1]; patients with DPP3 >40
  HR 14-day mortality: 1.35
[1]; patients with DPP3 >50 (ng/mL on admission)
  HR 14-day mortality: 1.69
[1]; patients with DPP3 >60
  HR 14-day mortality: 1.62
[1]; patients with DPP3 >70
  HR 14-day mortality: 1.24
[2]
  safety and tolerability, adverse events: no serious adverse events were observed
